Biological target: T1, KCNQ2/3 channels (Homo sapiens, UniProt O43525+O43526)
T1 construct: expressed in transfected cells
Assay: Fluorescence assay using a voltage sensitive dye (fluorimetry)
Assay type: cell-based
Conditions: CHO-K1 cells expressing KCNQ2/3; for Emax: CHO-K1, plateau effect relative to saturated retigabine (50 μM) = 100%, negative values = antagonistic, read-out: Fluorimetry % efficacy (retigabine = 100%); for EC50: IC50 where % efficacy is negative, read-out: Fluorimetry EC50/IC50

T1 sequence (O43526 whole entry): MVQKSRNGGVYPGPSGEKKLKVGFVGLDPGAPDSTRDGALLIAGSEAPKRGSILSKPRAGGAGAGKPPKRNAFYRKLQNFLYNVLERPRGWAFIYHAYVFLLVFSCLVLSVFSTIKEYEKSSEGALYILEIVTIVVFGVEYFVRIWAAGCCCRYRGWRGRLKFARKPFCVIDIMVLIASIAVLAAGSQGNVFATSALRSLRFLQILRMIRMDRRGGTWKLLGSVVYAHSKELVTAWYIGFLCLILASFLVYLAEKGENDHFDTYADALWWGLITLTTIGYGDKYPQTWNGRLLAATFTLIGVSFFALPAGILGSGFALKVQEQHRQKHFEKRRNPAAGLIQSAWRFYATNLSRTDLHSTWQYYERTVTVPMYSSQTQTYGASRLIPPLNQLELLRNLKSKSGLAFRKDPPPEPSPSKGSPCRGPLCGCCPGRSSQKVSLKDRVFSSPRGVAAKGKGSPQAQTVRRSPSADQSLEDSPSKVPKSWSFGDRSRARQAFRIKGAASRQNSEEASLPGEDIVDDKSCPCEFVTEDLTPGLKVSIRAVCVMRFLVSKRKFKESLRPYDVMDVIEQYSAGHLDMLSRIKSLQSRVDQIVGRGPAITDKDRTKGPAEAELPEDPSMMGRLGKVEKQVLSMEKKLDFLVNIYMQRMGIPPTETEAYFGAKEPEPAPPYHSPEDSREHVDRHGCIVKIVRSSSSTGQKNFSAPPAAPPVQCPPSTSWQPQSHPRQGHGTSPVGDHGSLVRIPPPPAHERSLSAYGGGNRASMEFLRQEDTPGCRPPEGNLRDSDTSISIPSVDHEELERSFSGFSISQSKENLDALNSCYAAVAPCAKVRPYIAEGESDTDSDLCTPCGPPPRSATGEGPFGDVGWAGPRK
T1 sequence (O43525 whole entry): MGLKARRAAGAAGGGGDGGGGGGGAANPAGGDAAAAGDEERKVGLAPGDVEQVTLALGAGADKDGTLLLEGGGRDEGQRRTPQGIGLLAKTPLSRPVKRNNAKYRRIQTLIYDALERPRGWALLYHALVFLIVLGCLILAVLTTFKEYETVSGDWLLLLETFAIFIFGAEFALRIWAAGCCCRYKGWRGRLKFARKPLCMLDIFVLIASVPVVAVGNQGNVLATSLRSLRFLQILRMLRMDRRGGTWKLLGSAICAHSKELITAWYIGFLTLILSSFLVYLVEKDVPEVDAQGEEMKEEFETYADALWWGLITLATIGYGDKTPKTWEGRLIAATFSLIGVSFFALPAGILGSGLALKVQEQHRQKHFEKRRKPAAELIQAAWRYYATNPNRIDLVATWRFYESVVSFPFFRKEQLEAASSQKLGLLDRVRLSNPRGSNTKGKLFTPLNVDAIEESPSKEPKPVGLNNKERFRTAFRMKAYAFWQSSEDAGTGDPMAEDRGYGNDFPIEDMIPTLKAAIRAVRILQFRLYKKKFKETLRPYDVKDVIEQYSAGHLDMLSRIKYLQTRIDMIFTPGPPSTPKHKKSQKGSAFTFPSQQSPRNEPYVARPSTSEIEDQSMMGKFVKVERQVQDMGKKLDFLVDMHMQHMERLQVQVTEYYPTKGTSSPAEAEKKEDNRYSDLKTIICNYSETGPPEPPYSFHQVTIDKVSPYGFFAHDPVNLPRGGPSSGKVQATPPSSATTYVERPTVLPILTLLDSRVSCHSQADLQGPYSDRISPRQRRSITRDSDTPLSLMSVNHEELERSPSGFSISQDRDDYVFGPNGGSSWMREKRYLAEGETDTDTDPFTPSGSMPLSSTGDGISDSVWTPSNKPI

Row | SMILES | Emax [%] | EC50 [µM]
1 | CCSc1nc(N2CCOC(C)(C)C2)cc(C)c1C(=O)NCc1cccc(F)c1 [Example 252, 6-(2,2-Dimethyl-morpholin-4-yl)-2-ethylsulfanyl-N-[(3-fluorophenyl)-methyl]-4-methyl-pyridine-3-carboxylic acid amide] | 137 | 0.274
2 | CCSc1nc(N(C)CC(C)=O)cc(C)c1C(=O)NCc1cccc(F)c1 [Example 253, 2-Ethylsulfanyl-N-[(3-fluorophenyl)-methyl]-4-methyl-6-[methyl-(2-oxo-propyl)-amino]-pyridine-3-carboxylic acid amide] | 79 | 5.74
3 | CCSc1nc(N2CCO[C@@H](COC)C2)cc(C)c1C(=O)NCc1ccc(Cl)cc1 [Example 254, N-[(4-Chlorophenyl)-methyl]-2-ethylsulfanyl-6-[(2R)-2-(methoxymethyl)-morpholin-4-yl]-4-methyl-pyridine-3-carboxylic acid amide] | 113 | 0.943
4 | CCSc1nc(N2CCO[C@H](COC)C2)cc(C)c1C(=O)NCc1ccc(Cl)cc1 [Example 255, N-[(4-Chlorophenyl)-methyl]-2-ethylsulfanyl-6-[(2S)-2-(methoxymethyl)-morpholin-4-yl]-4-methyl-pyridine-3-carboxylic acid amide] | 121 | 0.169
5 | CCSc1nc(N(C)C2CCOCC2)cc(C)c1C(=O)NCc1cccc(F)c1 [Example 258, 2-Ethylsulfanyl-N-[(3-fluorophenyl)-methyl]-4-methyl-6-(methyl-tetrahydro-pyran-4-yl-amino)-pyridine-3-carboxylic acid amide] | 170 | 0.301
6 | CCSc1nc(N(C)C2CCC(OC)CC2)cc(C)c1C(=O)NCc1cccc(F)c1 (centres unmarked) [Example 259, 2-Ethylsulfanyl-N-[(3-fluorophenyl)-methyl]-6-[(4-methoxy-cyclohexyl)-methyl-amino]-4-methyl-pyridine-3-carboxylic acid amide] | 133 | 0.298
7 | CCSc1nc(N2CCOC(C(F)(F)F)C2)cc(C)c1C(=O)NCc1cccc(F)c1 (centres unmarked) [Example 260, 2-Ethylsulfanyl-N-[(3-fluorophenyl)-methyl]-4-methyl-6-[2-(trifluoromethyl)-morpholin-4-yl]-pyridine-3-carboxylic acid amide] | 127 | 0.149
8 | CCSc1nc(N(C)C2CCCOC2)cc(C)c1C(=O)NCc1cccc(F)c1 (centres unmarked) [Example 261, 2-Ethylsulfanyl-N-[(3-fluorophenyl)-methyl]-4-methyl-6-(methyl-tetrahydro-pyran-3-yl-amino)-pyridine-3-carboxylic acid amide] | 96 | 0.786
9 | CCSc1nc(N2C(C)COCC2C)cc(C)c1C(=O)NCc1cccc(F)c1 (centres unmarked) [Example 262, 6-(3,5-Dimethyl-morpholin-4-yl)-2-ethylsulfanyl-N-[(3-fluorophenyl)-methyl]-4-methyl-pyridine-3-carboxylic acid amide] | 182 | 0.374
10 | CCSc1nc(N2CCOC[C@@H]2CO)cc(C)c1C(=O)NCc1cccc(F)c1 [Example 263, 2-Ethylsulfanyl-N-[(3-fluorophenyl)-methyl]-6-[(3S)-3-(hydroxymethyl)-morpholin-4-yl]-4-methyl-pyridine-3-carboxylic acid amide] | 114 | 4.14
11 | CCSc1nc(N2CCOC[C@H]2CO)cc(C)c1C(=O)NCc1cccc(F)c1 [Example 264, 2-Ethylsulfanyl-N-[(3-fluorophenyl)-methyl]-6-[(3R)-3-(hydroxymethyl)-morpholin-4-yl]-4-methyl-pyridine-3-carboxylic acid amide] | 184 | 1.56
12 | CCSc1nc(N2CCOCC2)cc(C)c1C(=O)NCCC(O)C(C)(C)C (centres unmarked) [Example 267, 2-Ethylsulfanyl-N-(3-hydroxy-4,4-dimethyl-pentyl)-4-methyl-6-morpholin-4-yl-pyridine-3-carboxylic acid amide] | 223 | 0.247
13 | CCSc1nc(N2CCOCC2)cc(C)c1C(=O)NCc1ccc(C#N)c(F)c1 [Example 268, N-[(4-Cyano-3-fluoro-phenyl)-methyl]-2-ethylsulfanyl-4-methyl-6-morpholin-4-yl-pyridine-3-carboxylic acid amide] | 142 | 0.286
14 | Cc1cc(N2CCOCC2)nc(OCCF)c1C(=O)NCc1ccc(Cl)cc1 [Example 269, N-[(4-Chlorophenyl)-methyl]-2-(2-fluoro-ethoxy)-4-methyl-6-morpholin-4-yl-pyridine-3-carboxylic acid amide] | 119 | 0.147
15 | CCSc1nc(N2CCO[C@@H](C)C2)cc(C)c1C(=O)NCCCC(C)(C)C [Example 274, N-(4,4-Dimethyl-pentyl)-2-ethylsulfanyl-4-methyl-6-[(2S)-2-methyl-morpholin-4-yl]-pyridine-3-carboxylic acid amide] | 217 | 0.234
16 | CCC(C)(C)c1nc(N2CCOCC2)cc(C)c1C(=O)NCCCC(C)(C)C [Example 279, N-(4,4-Dimethyl-pentyl)-2-(1,1-dimethyl-propyl)-4-methyl-6-morpholin-4-yl-pyridine-3-carboxylic acid amide] | 172 | 0.43
17 | CCSc1nc(N(C)C2CCCOC2)cc(C)c1C(=O)NCCCC(C)(C)C (centres unmarked) [Example 280, N-(4,4-Dimethyl-pentyl)-2-ethylsulfanyl-4-methyl-6-(methyl-tetrahydro-pyran-3-yl-amino)-pyridine-3-carboxylic acid amide] | 165 | 0.302
18 | CCSc1nc(N2CCOCC2)cc(C)c1C(=O)NCc1ccc([N+](=O)[O-])cc1 [Example 281, 2-Ethylsulfanyl-4-methyl-6-morpholin-4-yl-N-[(4-nitrophenyl)-methyl]-pyridine-3-carboxylic acid amide] | 109 | 0.311

Second part, the compound after the results:

Row | Emax [%] | EC50 [µM] | SMILES
19 | 221 | 0.101 | CCSc1nc(N2CCOC[C@H]2COC)cc(C)c1C(=O)NCc1ccc(Cl)cc1 [Example 256, N-[(4-Chlorophenyl)-methyl]-2-ethylsulfanyl-6-[(3R)-3-(methoxymethyl)-morpholin-4-yl]-4-methyl-pyridine-3-carboxylic acid amide]
20 | 125 | 0.023 | CCSc1nc(N2CCOC[C@@H]2COC)cc(C)c1C(=O)NCc1ccc(Cl)cc1 [Example 257, N-[(4-Chlorophenyl)-methyl]-2-ethylsulfanyl-6-[(3S)-3-(methoxymethyl)-morpholin-4-yl]-4-methyl-pyridine-3-carboxylic acid amide]
21 | 206 | 0.028 | Cc1cc(N2CCOC[C@H]2C)nc(C(C)C)c1C(=O)NCc1ccc(Cl)cc1 [Example 265, N-[(4-Chlorophenyl)-methyl]-2-isopropyl-4-methyl-6-[(3R)-3-methyl-morpholin-4-yl]-pyridine-3-carboxylic acid amide]
22 | 210 | 0.057 | CCCc1nc(N2CCOC[C@H]2C)cc(C)c1C(=O)NCc1ccc(Cl)cc1 [Example 266, N-[(4-Chlorophenyl)-methyl]-4-methyl-6-[(3R)-3-methyl-morpholin-4-yl]-2-propyl-pyridine-3-carboxylic acid amide]
23 | 97 | 0.024 | Cc1cc(N2CCOCC2)nc(OCC(F)F)c1C(=O)NCc1ccc(Cl)cc1 [Example 270, N-[(4-Chlorophenyl)-methyl]-2-(2,2-difluoro-ethoxy)-4-methyl-6-morpholin-4-yl-pyridine-3-carboxylic acid amide]
24 | 128 | 0.093 | Cc1cc(N2CCOCC2)nc(OCC2CC2)c1C(=O)NCc1ccc(Cl)cc1 [Example 271, N-[(4-Chlorophenyl)-methyl]-2-(cyclopropyl-methoxy)-4-methyl-6-morpholin-4-yl-pyridine-3-carboxylic acid amide]
25 | 96 | 0.078 | Cc1cc(N2CCOCC2)nc(OCC(F)F)c1C(=O)NCc1ccc(F)cc1 [Example 272, 2-(2,2-Difluoro-ethoxy)-N-[(4-fluorophenyl)-methyl]-4-methyl-6-morpholin-4-yl-pyridine-3-carboxylic acid amide]
26 | 163 | 0.137 | CCOc1nc(N2CCOC[C@H]2C)cc(C)c1C(=O)NCc1ccc(Cl)cc1 [Example 273, N-[(4-Chlorophenyl)-methyl]-2-ethoxy-4-methyl-6-[(3R)-3-methyl-morpholin-4-yl]-pyridine-3-carboxylic acid amide]
27 | 208 | 0.063 | CCSc1nc(N2CCO[C@H](C)C2)cc(C)c1C(=O)NCCCC(C)(C)C [Example 275, N-(4,4-Dimethyl-pentyl)-2-ethylsulfanyl-4-methyl-6-[(2R)-2-methyl-morpholin-4-yl]-pyridine-3-carboxylic acid amide]
28 | 102 | 0.143 | Cc1cc(N2CCOCC2)nc(OCC2CC2)c1C(=O)NCc1ccc(F)cc1 [Example 276, 2-(Cyclopropyl-methoxy)-N-[(4-fluorophenyl)-methyl]-4-methyl-6-morpholin-4-yl-pyridine-3-carboxylic acid amide]
29 | 129 | 0.017 | COC[C@H]1COCCN1c1cc(C)c(C(=O)NCc2ccc(Cl)cc2)c(C(C)C)n1 [Example 277, N-[(4-Chlorophenyl)-methyl]-2-isopropyl-6-[(3S)-3-(methoxymethyl)-morpholin-4-yl]-4-methyl-pyridine-3-carboxylic acid amide]
30 | 225 | 0.036 | CCC(C)Cc1nc(N2CCOCC2)cc(C)c1C(=O)NCCCC(C)(C)C (centres unmarked) [Example 278, N-(4,4-Dimethyl-pentyl)-4-methyl-2-(2-methyl-butyl)-6-morpholin-4-yl-pyridine-3-carboxylic acid amide]
31 | 182 | 0.04 | Cc1cc(N2CCOC[C@H]2C)nc(C2CC2)c1C(=O)NCc1ccc(Cl)cc1 [Example 282, N-[(4-Chlorophenyl)-methyl]-2-cyclopropyl-4-methyl-6-[(3R)-3-methyl-morpholin-4-yl]-pyridine-3-carboxylic acid amide]

From patent US9168259B2 (GRÜNENTHAL GMBH, priority 2010, dated 2015)
